Drawing on PubChem BioAssay (NCI), this text covers GI50 and TGI for 8 compounds.

Values joined by “and” are separate entries in the source; they are usually repeats but may differ in a detail not shown here. Equal entries are not always repeated.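 Method: 48-hour compound exposure of cells in 96-well plates, five concentrations, linear interpolation of endpoints. Abbreviation: GI50, concentration required for 50% inhibition of growth. The concentration for full growth arrest is given as TGI.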

Test systems include A549 NSCLC; T-47D breast; DU-145 prostate; MDA-MB-231 breast; SR leukemia; HT29 colon; 786-0 renal; MOLT-4 leukemia; RXF 393 renal; SNB-75 CNS.
Common to all, as to test: DTP human tumour cell line panel, 48 h

By GI50 is commonly meant the concentration that inhibits growth by half. What is called TGI is the concentration at which net growth stops. Higher therefore signals less potent growth arrest. As to `COc1cc(OCCCN2CCCC2)ccc1Nc1ncc(Cl)c(Nc2ccccc2P(C)(C)=O)n1`, the GI50 is 2.14 µM with A549 NSCLC; 8.71 µM with T-47D breast; 1.91 µM in the assay with DU-145 prostate; 1.56 µM in the assay on MDA-MB-231 breast; 0.0173 µM in the assay on SR leukemia; 0.521 µM with HT29 colon. The GI50 with 786-0 renal is 2.7 µM; in the assay with MOLT-4 leukemia, 3.95 µM; with RXF 393 renal, 0.81 µM; in the assay on SNB-75 CNS, 2.55 µM. The concentration for total growth inhibition (TGI) stood at 10.6 µM in the assay on A549 NSCLC; 54.3 µM with T-47D breast; 36.4 µM with DU-145 prostate; 11.7 µM in the assay with MDA-MB-231 breast; 3.79 µM in the assay with HT29 colon; 11.6 µM with 786-0 renal. In addition, the concentration for total growth inhibition (TGI) with MOLT-4 leukemia turned out to be 26 µM; in the assay with RXF 393 renal, 3.23 µM; in the assay on SNB-75 CNS, 11.8 µM.

As to `CC1(C)N=C(N)N=C(N)N1c1cccc(CCCCc2ccc(Cl)c(S(=O)(=O)F)c2)c1`, the GI50 was 4.38 µM in the assay on A549 NSCLC; 13.8 µM in the assay with T-47D breast; 4.09 µM in the assay on DU-145 prostate; 11 µM with MDA-MB-231 breast; 2.44 µM with SR leukemia; 0.441 µM in the assay with HT29 colon. Moreover, the GI50 in the assay with 786-0 renal was 2.67 µM; with MOLT-4 leukemia it was 1.82 µM; in the assay with RXF 393 renal, 0.459 µM; with SNB-75 CNS, 10.3 µM. Moreover, the TGI worked out at 36 µM in the assay on A549 NSCLC; 30.9 µM with T-47D breast; 17.1 µM with DU-145 prostate; 25.8 µM in the assay with MDA-MB-231 breast; 16.8 µM in the assay with SR leukemia; 16.3 µM in the assay on HT29 colon. Also, the total growth inhibition concentration (TGI) with 786-0 renal was found to be 16.3 µM; in the assay with MOLT-4 leukemia, 19.2 µM; in the assay with RXF 393 renal it was 16.1 µM; with SNB-75 CNS, 22.4 µM.

Consider `O=c1oc2ccc(F)cc2c(=O)n1-c1ccc(I)cc1F`, for which the GI50 in the assay on A549 NSCLC was 2.4 µM; in the assay on T-47D breast it was 0.29 µM; with DU-145 prostate it was 0.497 µM; in the assay on MDA-MB-231 breast it was 0.614 µM; in the assay on SR leukemia it was 0.388 µM; with HT29 colon it was 3.29 µM. Besides, the GI50 was 1.67 µM in the assay on 786-0 renal, 1.07 µM with MOLT-4 leukemia, 0.543 µM in the assay on RXF 393 renal and 0.368 µM in the assay on SNB-75 CNS. The TGI in the assay on A549 NSCLC was greater than 94.7 µM; with T-47D breast, 9.24 µM; in the assay with DU-145 prostate, 26.4 µM; in the assay with MDA-MB-231 breast it was 3.61 µM; with SR leukemia, 11.1 µM; in the assay with HT29 colon it was greater than 33 µM. The total growth inhibition concentration (TGI) in the assay with 786-0 renal is 8.1 µM; in the assay on MOLT-4 leukemia it was 3.65 µM; in the assay with RXF 393 renal, 3.3 µM; in the assay with SNB-75 CNS it was 10.4 µM.

`COc1ccc2c(c1)C(=O)/C(=C/c1ccc(O)cc1)O2`: the GI50 is 25.7 µM in the assay on A549 NSCLC; 7.27 µM in the assay with T-47D breast; 9.45 µM in the assay on DU-145 prostate; 14.2 µM with MDA-MB-231 breast; 1.79 µM in the assay with SR leukemia; 4.14 µM in the assay on HT29 colon. Also, the GI50 in the assay on 786-0 renal is 17.9 µM; with MOLT-4 leukemia, 2.38 µM; with RXF 393 renal, 11 µM; in the assay on SNB-75 CNS it was 8.82 µM. Besides, the concentration for total growth inhibition (TGI) in the assay with A549 NSCLC came to 67.5 µM; in the assay with T-47D breast, 37.6 µM; in the assay on DU-145 prostate, 21.9 µM; with MDA-MB-231 breast, 28.8 µM; in the assay with SR leukemia, 4.71 µM; in the assay on HT29 colon, 14.8 µM. The concentration for total growth inhibition (TGI) in the assay on 786-0 renal was 41.4 µM; in the assay on MOLT-4 leukemia, 6.06 µM; in the assay on RXF 393 renal it was 26 µM; with SNB-75 CNS, greater than 32.3 µM.

On to `N#Cc1c(N)c(C(=O)c2ccc3c(c2)OCCO3)n2c1CCCC2`, for which the GI50 is 4.27 µM in the assay on A549 NSCLC; 4.38 µM with T-47D breast; 4.45 µM with DU-145 prostate; 6.47 µM in the assay with MDA-MB-231 breast; 0.869 µM in the assay with SR leukemia; 2.23 µM with HT29 colon. Besides, the GI50 with 786-0 renal was 5.31 µM; in the assay on MOLT-4 leukemia, 4.19 µM; in the assay on RXF 393 renal, 2.29 µM; with SNB-75 CNS, 1.8 µM. In addition, the total growth inhibition concentration (TGI) with A549 NSCLC, in the assay on T-47D breast, in the assay with DU-145 prostate, in the assay with MDA-MB-231 breast, in the assay on SR leukemia and with HT29 colon was greater than 100 µM throughout. In addition, the concentration for total growth inhibition (TGI) with 786-0 renal is greater than 100 µM; in the assay on MOLT-4 leukemia it was greater than 100 µM; with RXF 393 renal it was 17.9 µM; in the assay with SNB-75 CNS, 7.48 µM.

Regarding `CCCCCCCC(=O)Nc1nc2[nH]c(CN3CCN(Cc4cccc(I)c4)CC3)c(CN3CCN(Cc4cccc(I)c4)CC3)c2c(=O)[nH]1`, the GI50 with A549 NSCLC is 0.989 µM; in the assay with T-47D breast it was 0.993 µM; in the assay with DU-145 prostate it was 0.913 µM; in the assay on MDA-MB-231 breast, 0.875 µM; in the assay with SR leukemia it was 0.238 µM; in the assay on HT29 colon, 0.998 µM. For the same compound, the GI50 in the assay on 786-0 renal is 0.793 µM; in the assay on MOLT-4 leukemia, 0.934 µM; in the assay with RXF 393 renal it was 0.78 µM; with SNB-75 CNS it was 0.691 µM. Besides, the concentration for total growth inhibition (TGI) with A549 NSCLC worked out at 1.91 µM; in the assay on T-47D breast it was 2.18 µM; in the assay with DU-145 prostate it was 1.73 µM; in the assay with MDA-MB-231 breast it was 1.65 µM; with SR leukemia, 1.06 µM; with HT29 colon, 2.13 µM. For the same compound, the TGI with 786-0 renal was 1.5 µM; in the assay on MOLT-4 leukemia, 2.59 µM; in the assay on RXF 393 renal it was 1.49 µM; in the assay with SNB-75 CNS, 1.35 µM.

Take `Oc1cccc2cccnc12`: the GI50 in the assay with A549 NSCLC is 6.17 µM and 16.4 µM and 5.97 µM; with DU-145 prostate it was 20.9 µM and 68.8 µM and 18.2 µM; with HT29 colon it was 3.53 µM and 13.8 µM and 4.64 µM; in the assay with RXF 393 renal, 13.4 µM and 69.6 µM and 14.6 µM; with SNB-75 CNS, 44 µM and 18.4 µM. The TGI in the assay with A549 NSCLC is greater than 100 µM; in the assay with T-47D breast, greater than 100 µM; in the assay on DU-145 prostate it was greater than 100 µM; in the assay on MDA-MB-231 breast, > 28.7 µM and 84 µM and 33.1 µM; in the assay on SR leukemia, 23.7 µM and 3.71 µM; in the assay on HT29 colon it was greater than 100 µM. Besides, the TGI in the assay on 786-0 renal, in the assay with RXF 393 renal and in the assay on SNB-75 CNS was greater than 100 µM each time.

In the case of `NC(=O)c1ccc(I)c([N+](=O)[O-])c1`, the GI50 with A549 NSCLC was greater than 94.5 µM; in the assay with T-47D breast, 35.8 µM; in the assay with DU-145 prostate, greater than 95.3 µM; in the assay on MDA-MB-231 breast, 49.5 µM; in the assay with SR leukemia, 32.8 µM; in the assay on HT29 colon, 58 µM. Also, the GI50 was greater than 100 µM in the assay on 786-0 renal, greater than 71.2 µM with MOLT-4 leukemia, greater than 84.8 µM in the assay with RXF 393 renal and greater than 100 µM with SNB-75 CNS. The concentration for total growth inhibition (TGI) in the assay with A549 NSCLC, with T-47D breast, with DU-145 prostate, with MDA-MB-231 breast, in the assay on SR leukemia and in the assay with HT29 colon was greater than 100 µM throughout. Further, the total growth inhibition concentration (TGI) with 786-0 renal, with MOLT-4 leukemia, in the assay with RXF 393 renal and in the assay with SNB-75 CNS was greater than 100 µM throughout.
